Data on two compounds can be found in US20100221274A1, “METHOD OF ADMINISTERING A THYMOSIN ALPHA 1 PEPTIDE” (SCICLONE PHARMACEUTICALS, INC., priority 2001, published 2010).

Peptide text beside a SMILES is read from it.

One data set has as its system IFN-γ. Nature of the data set: cytokine expression in plasma by ELISA: IFN-γ, Example 2. Format: in vivo, rats. The protocol:
(§1) 10 week old rats, weighing 250-300 g, received […] 5-FU for immune suppression.
(§2) 8 days after 5-FU treatment, rats were randomly assigned to one of the following groups (n=15): • Control (saline in minipump) • High dose TA1, injected s.c. at 3.5 mg/Kg (with empty minipumps) • Continuous infusion TA1, provided by minipump at 3.5 mg/Kg/5 days
(§3) Immune parameters were determined at baseline and 8 days after 5-FU treatment (day 1 of TA1 treatment), and also at 5 and 14 days after TA1 treatment.
(§4) The evaluations included total leukocyte number (judged by physical cytofluorimetric parameters, after verifying the specificity by monoclonal antibody), granulocytes (flow cytometry using FITC anti rat granulocyte HIS-48), total lymphocyte number (CD3+ by flow cytometry), T helper lymphocytes (CD4+ by flow cytometry), activated lymphocytes (CD25+CD3+ by flow cytometry), and cytokine expression in plasma (IL-2 and IFN-γ by ELISA).

In another data set the test system is NK activity. Nature of the data set: NK activity (LDH released from YAC-1 cells after 4 h exposure to PBMC) in 5-FU immune-suppressed rats, Example 1. The class given is in vivo. Conditions: for NK activity: 5 days after TA1 treatment. The protocol: (§5) In the following examples, which are not intended to be limiting, a continuous infusion of TA1 (N-acetyl-[…]OH) (SEQ ID NO:1) was evaluated in a cancer therapy model with the use of surgically implanted osmotic minipumps, which deliver fluids at a constant flow rate for 5 days. Rats were given 5-fluorouracil (5-FU) to cause immune suppression, and then treated with injected or infused TA1 8 days later (the nadir of white cell count after 5-FU). Treatment groups, 8 rats each, were: control (minipumps with saline); low dose TA1 (0.2 mg/Kg sc injection; empty minipumps); high dose TA1 (3.5 mg/Kg sc injection; empty minipumps); and high dose infused TA1 (3.5 mg/Kg infused by minipumps). Immune parameters were determined at baseline and 8 days after 5-FU treatment (day 1 of TA1 treatment), and also at 5, 12, 20, and 27 days after TA1 treatment.
(§6) 10 week old rats, weighing 250-300 g, received 100 mg/kg 5-fluorouracil (5-FU) for immune suppression.
(§7) 8 days after 5-FU treatment, rats were randomly assigned to one of the following groups (n=8): • Control (saline in minipump) • Low dose TA1, injected s.c. at 0.2 mg/Kg (with empty minipumps) • High dose TA1, injected s.c. at 3.5 mg/Kg (with empty minipumps) • Continuous infusion TA1, provided by minipump at 3.5 mg/Kg/5 days
(§8) Immune parameters were determined at baseline and 8 days after 5-FU treatment (day 1 of TA1 treatment), and also at 5, 12, 20, and 27 days after TA1 treatment.
(§9) The evaluations included NK activity (LDH released from YAC-1 cells after 4 h exposure to PBMC), total leukocyte number (judged by physical cytofluorimetric parameters, after verifying the specificity by monoclonal antibody), total lymphocyte number (CD3+ by flow cytometry), and activated lymphocytes (CD25+CD3+ by flow cytometry).
Background: LDH in the medium is a marker of cell lysis.

Data set [1] can be described thus: observation of adverse events in treated rats. Format: in vivo. The protocol:
as §2

Data set [2] deals with activated lymphocytes (CD3+CD25+). Nature of the data set: activated lymphocytes (CD25+CD3+ by flow cytometry) in 5-FU immune-suppressed rats, Example 1. Format: in vivo. The protocol:
as §5, §6, §7, §8, §9
In general terms: Flow cytometry measures light scatter and fluorescence of single cells or particles in a stream.

Another data set deals with IL-2. Nature of the data set: cytokine expression in plasma by ELISA: IL-2, Example 2. Format: in vivo, rats. Conditions: for plasma level of IL-2: 14 days after TA1. How it is done:
as §1, §2, §3, §4
(An ELISA detects its analyte on a solid surface through an enzyme-linked reagent.)

Data set [3] deals with activated lymphocytes (CD25+CD3+). Nature of the data set: activated lymphocytes (CD25+CD3+ by flow cytometry) in 5-FU immune-suppressed rats, Example 2. The class given is in vivo. The protocol:
as §1, §2, §3, §4

Another data set deals with granulocytes. Nature of the data set: granulocytes (flow cytometry, HIS-48) in 5-FU immune-suppressed rats, Example 2. The class given is in vivo. How it is done:
as §1, §2, §3, §4

A further data set has as its system total leukocyte number. Nature of the data set: total white blood cell count in 5-FU immune-suppressed rats, Example 1. The class given is in vivo. How it is done: as §5, §6, §7, §8, §9
For a further data set, the system named is total lymphocytes (CD3+). Nature of the data set: total lymphocyte number (CD3+ by flow cytometry) in 5-FU immune-suppressed rats, Example 2. The class given is in vivo. How it is done:
as §1, §2, §3, §4

The test system of data set [4] is T helper lymphocytes (CD3+CD4+). Nature of the data set: T helper lymphocytes (CD4+ by flow cytometry) in 5-FU immune-suppressed rats, Example 2. The class given is in vivo. The protocol:
as §1, §2, §3, §4

Setting [5] is: continuous infusion by minipump 3.5 mg/Kg/5 days.
[6] abbreviates: high dose injected s.c. 3.5 mg/Kg.
[7] abbreviates: low dose injected s.c. 0.2 mg/Kg.
Where [8] appears, read: continuous infusion 3.5 mg/Kg/5 days.
Where [9] appears, read: one animal, high dose injection followed by infusion.

As for `CC[C@H](C)[C@H](NC(=O)[C@H](CCC(=O)O)NC(=O)[C@H](CO)NC(=O)[C@H](CO)NC(=O)[C@@H](NC(=O)[C@H](CC(=O)O)NC(=O)[C@@H](NC(=O)[C@H](C)NC(=O)[C@H](C)NC(=O)[C@H](CC(=O)O)NC(=O)[C@H](CO)NC(C)=O)C(C)C)[C@@H](C)O)C(=O)N[C@H](C(=O)N[C@H](C(=O)N[C@@H](CCCCN)C(=O)N[C@@H](CC(=O)O)C(=O)N[C@@H](CC(C)C)C(=O)N[C@@H](CCCCN)C(=O)N[C@@H](CCC(=O)O)C(=O)N[C@@H](CCCCN)C(=O)N[C@@H](CCCCN)C(=O)N[C@@H](CCC(=O)O)C(=O)N[C@H](C(=O)N[C@H](C(=O)N[C@@H](CCC(=O)O)C(=O)N[C@@H](CCC(=O)O)C(=O)N[C@@H](C)C(=O)N[C@@H](CCC(=O)O)C(=O)N[C@@H](CC(N)=O)C(=O)O)C(C)C)C(C)C)[C@@H](C)O)[C@@H](C)O` [TA1] (Ac-SDAAVDTSSEITTKDLKEKKEVVEEAEN-OH), the “plasma level of IFN-γ” value with IFN-γ (TA1 by injection 3.5 mg/Kg s.c., 14 days after treatment) stood at 10 ± 1 pg/mL; with IFN-γ (continuous infusion 3.5 mg/Kg/5 days, 14 days after treatment) it was 14 ± 5 pg/mL; in the data set with IFN-γ (one animal, both injection and continuous infusion, after 14 days), 45 pg/mL. The “plasma level of IFN-γ relative to other groups” value with IFN-γ (s.c. injected TA1 3.5 mg/Kg, 5 days after treatment) was “higher plasma levels of IFN-γ”. Moreover, the “recovery of NK activity” value with NK activity (setting [5]) is given as “complete recovery of NK activity to baseline levels”. For the same compound, the NK activity in the data set with NK activity (continuous infusion by minipump 3.5 mg/Kg/5 days, baseline 42±5%) is 32±4%; with NK activity (setting [6]), 16±2%; in the data set with NK activity (setting [7]), 12±3%. The “time to significant recovery of NK activity” value turned out to be 5 days with NK activity (setting [6]) and 12 days in the data set with NK activity (setting [7]). Also, the adverse events result in [1] (doses of TA1 15 times higher than usual (one animal 30 times higher than usual)) is recorded as “No adverse events were observed”. Further, in data set [1] (one animal, both injection (3.5 mg/Kg) and continuous infusion (another 3.5 mg/Kg)), the “adverse events / condition of the animal” value was “healthy and vigorous, with no obvious adverse events”. Also, the “activated lymphocytes (CD3+CD25+)” value stood at 422±105 cells/mm^3 in data set [2] (continuous infusion 3.5 mg/Kg/5 days, 12 days after TA1 treatment); 446±73 cells/mm^3 in data set [2] (continuous infusion 3.5 mg/Kg/5 days, 20 days after TA1 treatment); 297±136 cells/mm^3 in data set [2] (high dose injected 3.5 mg/Kg, 12 days after TA1 treatment); 321±75 cells/mm^3 in data set [2] (high dose injected 3.5 mg/Kg, 20 days after TA1 treatment). For the same compound, the “plasma level of IL-2” value in the data set with IL-2 (setting [8]) was found to be 42 ± 7 pg/mL; in the data set on IL-2 (injected TA1 3.5 mg/Kg s.c.), 21 ± 16 pg/mL. For the same compound, in the data set on IL-2 (one animal, both injection and continuous infusion), the “plasma level of IL-2 relative to other animals” value is “even greater levels of both of the Th1 cytokines measured”. Also, the activated lymphocytes in data set [3] (setting [8]) is 428±89 cells/mm^3; in [3] (setting [9]), 976 cells/mm^3. Besides, the “percentage of lymphocytes which were activated” value in data set [3] (setting [8]) is listed as 4 % of lymphocytes; in data set [3] (setting [9]) it was 10 % of lymphocytes. The number of granulocytes is on record as 9,924±3,218 cells/mm^3 in the data set on granulocytes (TA1 by s.c. injection 3.5 mg/Kg, 5 days); 14,652±2,463 cells/mm^3 in the data set on granulocytes (continuous infusion 3.5 mg/Kg/5 days, 5 days); 19,376 cells/mm^3 in the data set with granulocytes (one animal, both injection (3.5 mg/Kg) and continuous infusion (another 3.5 mg/Kg), after 5 days). Also, the “number of granulocytes relative to other groups” value with granulocytes (continuous infusion 3.5 mg/Kg/5 days, after 14 days) is “still the highest”. The “recovery of total white blood cell count” value in the data set with total leukocyte number (setting [5]) was “statistically significant and complete recovery to baseline levels after only 5 days”; in the data set on total leukocyte number (low or high dose TA1 by s.c. injection (0.2 or 3.5 mg/Kg)), “trended towards a sooner increase in recovery compared to untreated animals”. The “time to recovery of total lymphocytes (CD3+) to baseline levels” value is 5 days in the data set on total lymphocytes (CD3+) (setting [8]) and 14 days with total lymphocytes (CD3+) (injected TA1 3.5 mg/Kg s.c.). For the same compound, the levels of lymphocytes in the data set on total lymphocytes (CD3+) (continuous infusion 3.5 mg/Kg/5 days, mean of other animals) is 9,644±961 cells/mm^3; in the data set on total lymphocytes (CD3+) (one animal, both injection and continuous infusion (3.5 mg/Kg each)) it was 9,765 cells/mm^3. Further, in data set [4] (TA1 by either delivery method (injection or continuous infusion, 3.5 mg/Kg)), the “recovery of T helper cell levels” value is “sufficient to return the levels of T helper cells to baseline”.

As to `O=c1[nH]cc(F)c(=O)[nH]1` [5-FU, 5-fluorouracil], the “NK activity after 5-FU” value in the data set with NK activity (8 days after 100 mg/kg 5-FU, baseline 42±5%) is listed as 9±2%. In data set [2] (8 days after 100 mg/kg 5-FU, baseline 65±21), the “activated lymphocytes (CD3+CD25+) after 5-FU” value was determined as 37±10 cells/mm^3. Moreover, the “number of granulocytes after 5-FU” value with granulocytes (8 days after 100 μg/kg 5-FU, baseline 4,485±1,116) is reported as 1,249±432 cells/mm^3. Also, in the data set with total leukocyte number (8 days after 100 mg/kg 5-FU, baseline 14,590±2,071), the “total white blood cell count after 5-FU” value is 2,597±582 cells/mm^3. In addition, the “total lymphocytes (CD3+) after 5-FU” value in the data set with total lymphocytes (CD3+) (8 days after 100 μg/kg 5-FU, baseline 10,904±1,973) is 1,740±560 cells/mm^3. The “T helper lymphocytes (CD3+CD4+) after 5-FU” value in [4] (8 days after 100 μg/kg 5-FU, baseline 5,411±1,084) was 1,710±449 cells/mm^3.
